US20040006127A1, “Activation of the cystic fibrosis transmembrane conductance regulator chloride channel” (priority 2000, published 2004)
Entries after “also recorded” stand apart in the source; their conditions may differ.

Assays:
wild-type human CFTR [1] = molecular target: T1, wild-type human CFTR (Homo sapiens, UniProt P13569); test: CFTR Cl- currents in excised inside-out membrane patches from C127 cells (time course, I-V studies); type: biochemical; conditions: for concentration that maximally stimulated channel activity: excised membrane patches; for effect on channel activity at positive voltages: phloxine B 40 μM
T1 construct: expressed in transfected cells
Description: For electrophysiological experiments, we used mouse mammary epithelial cells (C127 cells) stably expressing wild-type human CFTR or ΔF508, the most common CF-associated mutation (11). C127 cells expressing wild-type CFTR were cultured as previously described (12). C127 cells expressing ΔF508 were cultured at 28° C., to overcome the processing defect of ΔF508 and promote bs delivery to the cell membrane (13). Cells were seeded onto glass coverslips and used within either 48 h (wild-type CFTR) or 1 week (ΔF508).
CFTR Cl^− channels were recorded in excised inside-out membrane patches using an Axopatch 200A patch-clamp amplifier (Axon Instruments Inc., Foster City, USA) and pCLAMP data acquisition and analysis software (version 6.03, Axon Instruments Inc.) as previously described (12,14). The established sign convention was used throughout; currents produced by positive charge moving from intra- to extracellular solutions (anions moving in the opposite direction) are shown as positive currents.
The pipette (extracellular) solution contained (in mM): 140 N-methyl-D-glucamine (NMDG), 140 aspartic acid, 5 CaCl2, 2 MgSO4, and 10 N-tris[hydroxymethyl]methyl-2-aminoethanesulphonic acid (Tes), pH 7.3 with Tris ([Cl^−], 10 mM). The bath (intracellular) solution contained (in mM): 140 NMDG, 3 MgCl2, 1 ethylene glycol-bis(β-aminoethylether)-N,N,N′,N′-tetraacetic acid caesium salt (CsEGTA), and 10 Tes, pH 7.3 with HCl, ([Cl^−], 147 mM; [Ca^2+]free, <10^−8 M). All experiments were conducted at 37° C.
After excision of membrane patches from C127 cells. CFTR Cl^− channels were activated by the addition of the catalytic subunit of protein kinase A (PKA; 75 nM) and ATP (1.0 mM) to the intracellular solution within 5 min of patch excision. […] PKA was maintained in the intracellular solution for the duration of experiments. Voltage was −50 mV. […] The number of channels per patch was determined from the maximum number of simultaneous channel openings observed during the course of an experiment, as previously described (12). […] To investigate whether modulation of CFTR by fluorescein derivatives was voltage dependent, we used a voltage ramp protocol. Macroscopic current-voltage (I-V) relationships were obtained. In the absence and presence of fluorescein derivatives by averaging currents generated by 15-30 ramps of voltage, each of 2 s duration; holding voltage was −50 mV. Basal currents recorded in the absence of PKA and ATP were subtracted from those recorded in the absence and presence of fluorescein derivatives to determine the effect of fluorescein derivatives on CFTR Cl^− currents,
CFTR Cl^− currents were initially recorded on digital audiotape using a digital tape recorder (Biologic Scientific Instruments, model DTR-1204; lntracel Ltd, Royston, UK) at a bandwidth of 10 kHz. On playback, records were filtered with an eight-pole Bessel filter (Frequency Devices, model 902LPF2: Scensys Ltd, Aylesbury, UK) at a corner frequency of 500 Hz and acquired using a Digidata 1200 interface (Axon Instruments Inc.) and pCLAMP at sampling rates of either 2.5 kHz (time course studies) or 5.0 kHz (single-channel studies).
In time course studies, each point is the average current for a 4 s period with data points collected continuously, no data were collected while solutions were changed. Average current (I) for a specific intervention was determined as the average of all the data points collected during the intervention. The relationship between drug concentration and CFTR inhibition was fitted to the Hill equation:
IDrug/IControl=1/{1+([Drug]/Ki)^n}, (1)
where [Drug] is the concentration of drug, IDrug/IControl is the fractional current at the indicated drug concentration relative to that in the same solution in the absence of added drug, Ki is the drug concentration causing half-maximal inhibition, and n is the slope factor (Hill coefficient). Mean data were fitted to a linear form of equation (1) using linear least-squares regression to yield Ki and n values.

wild-type human CFTR [2] = molecular target: T1, wild-type human CFTR; test: Single-channel recording of CFTR Cl- channels in excised inside-out membrane patches from C127 cells; type: biochemical
[3] = molecular target: wild-type CFTR Cl- channels (Homo sapiens, UniProt P13569); conditions: reported by Wang et al. (18); cited from earlier work
[4] = molecular target: T2, endogenous CFTR Cl- channels in Type I MDCK cells (Canis lupus familiaris, UniProt Q5U820); test: cAMP-stimulated iodide efflux from Type I MDCK cells; type: cell-based, canine
T2 construct: Type I MDCK cells are kidney epithelial cells that endogenously express the CFTR Cl^− channel; endogenous in cells; host or cells: Type I MDCK cells
Description: For iodide efflux experiments, we used Type I Mardin-Darby canine kidney (MDCK) cells. MDCK cells were cultured in MDCK media (a 1:1 mixture of Dulbecco's Modified Eagle Medium (DMEM) and Ham's F-12 nutrient medium supplemented with 10% fetal bovine serum, 100 U ml^1 penicillin, and […] ml^−streptomycin; all from Life Technologies Ltd, Paisley, UK) at 37° C. in a humidified atmosphere of 5% CO2. Cells were seeded onto 60 mm plastic culture dishes and used 72-96 h later.
Type I MDCK cells (≧90% confluent) were incubated for 1 h in a loading buffer containing (mM): 136 Nal, 3 KNO3, 2 Ca(NO3)2, 11 glucose, and 20 Hepes, adjusted to pH 7.4 with NaOH. […] The efflux buffer was changed at 1 min intervals over the duration of the experiment, which typically lasted 18 min. Four minutes after anion substitution, cells were exposed to agonists for 4 min. The amount of iodide in each 2.5 ml sample of efflux buffer was determined using an iodide-selective electrode (Russell pH Ltd. Auchtermuchty, UK). Cells were loaded and experiments performed at room temperature (23° C.).
Type I MDCK cells are kidney epithelial cells that endogenously express the CFTR Cl^− channel (20).
Nitrate was substituted for iodide in the bathing medium at t=−4 min and iodide efflux was monitored at 1 min intervals, for the duration of the experiment.

KATP currents = molecular target: T3, KATP currents (Homo sapiens, UniProt Q09428+Q14654); conditions: added to the extracellular solution; de Weille et al. (10); cited from earlier work
T3 construct: host or cells: pancreatic β-cells

ΔF508 CFTR = molecular target: T4, ΔF508 CFTR (Homo sapiens, UniProt P13569, DEL508-508); test: Single-channel recording of ΔF508 CFTR Cl- channels in excised patches from C127 cells grown at 28° C.; type: biochemical; conditions: 1 μM
T4 construct: expressed in transfected cells

[5] = 1 μM, ATP 0.3 mM, PKA 75 nM, -50 mV
[6] = eosin Y 100 μM, symmetrical 147 mM Cl-, ATP 1 mM

T4 sequence (P13569 with tags, fused parts or gaps DEL508-508): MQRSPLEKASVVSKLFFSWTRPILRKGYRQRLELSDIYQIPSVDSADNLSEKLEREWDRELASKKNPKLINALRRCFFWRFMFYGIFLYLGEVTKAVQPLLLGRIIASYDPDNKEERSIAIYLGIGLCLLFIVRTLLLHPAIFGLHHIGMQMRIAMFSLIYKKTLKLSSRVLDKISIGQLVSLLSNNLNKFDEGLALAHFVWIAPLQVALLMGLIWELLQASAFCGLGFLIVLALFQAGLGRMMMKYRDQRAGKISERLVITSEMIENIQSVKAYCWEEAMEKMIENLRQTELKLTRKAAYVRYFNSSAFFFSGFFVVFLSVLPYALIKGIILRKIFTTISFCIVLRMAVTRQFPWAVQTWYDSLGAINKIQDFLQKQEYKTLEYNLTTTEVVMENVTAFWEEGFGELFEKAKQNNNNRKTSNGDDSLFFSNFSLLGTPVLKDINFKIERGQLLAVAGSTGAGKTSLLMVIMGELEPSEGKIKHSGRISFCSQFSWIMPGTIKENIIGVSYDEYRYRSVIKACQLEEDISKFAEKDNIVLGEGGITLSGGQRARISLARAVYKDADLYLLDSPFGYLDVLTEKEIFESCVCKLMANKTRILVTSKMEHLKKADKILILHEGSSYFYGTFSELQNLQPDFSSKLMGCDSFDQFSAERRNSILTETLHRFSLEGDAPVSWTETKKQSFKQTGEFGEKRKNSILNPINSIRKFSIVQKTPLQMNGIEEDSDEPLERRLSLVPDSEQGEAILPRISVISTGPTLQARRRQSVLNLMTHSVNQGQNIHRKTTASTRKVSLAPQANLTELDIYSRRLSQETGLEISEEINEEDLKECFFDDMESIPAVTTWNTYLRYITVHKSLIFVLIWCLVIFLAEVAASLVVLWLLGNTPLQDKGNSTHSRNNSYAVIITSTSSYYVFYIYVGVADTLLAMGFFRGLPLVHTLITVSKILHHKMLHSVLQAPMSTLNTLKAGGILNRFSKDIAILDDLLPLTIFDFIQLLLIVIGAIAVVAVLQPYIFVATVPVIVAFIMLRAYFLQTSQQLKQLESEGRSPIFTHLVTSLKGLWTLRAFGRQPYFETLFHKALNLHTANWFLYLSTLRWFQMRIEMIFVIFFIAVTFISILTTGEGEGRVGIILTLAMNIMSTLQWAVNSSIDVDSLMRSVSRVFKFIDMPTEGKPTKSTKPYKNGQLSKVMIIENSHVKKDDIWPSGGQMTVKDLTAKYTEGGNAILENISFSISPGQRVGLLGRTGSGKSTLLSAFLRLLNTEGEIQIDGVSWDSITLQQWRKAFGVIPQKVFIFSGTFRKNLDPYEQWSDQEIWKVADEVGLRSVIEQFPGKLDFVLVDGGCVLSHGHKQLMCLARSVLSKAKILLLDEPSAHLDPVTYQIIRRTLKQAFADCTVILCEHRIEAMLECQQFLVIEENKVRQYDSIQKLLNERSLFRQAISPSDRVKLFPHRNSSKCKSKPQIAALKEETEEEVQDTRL
T1 sequence (P13569 whole entry): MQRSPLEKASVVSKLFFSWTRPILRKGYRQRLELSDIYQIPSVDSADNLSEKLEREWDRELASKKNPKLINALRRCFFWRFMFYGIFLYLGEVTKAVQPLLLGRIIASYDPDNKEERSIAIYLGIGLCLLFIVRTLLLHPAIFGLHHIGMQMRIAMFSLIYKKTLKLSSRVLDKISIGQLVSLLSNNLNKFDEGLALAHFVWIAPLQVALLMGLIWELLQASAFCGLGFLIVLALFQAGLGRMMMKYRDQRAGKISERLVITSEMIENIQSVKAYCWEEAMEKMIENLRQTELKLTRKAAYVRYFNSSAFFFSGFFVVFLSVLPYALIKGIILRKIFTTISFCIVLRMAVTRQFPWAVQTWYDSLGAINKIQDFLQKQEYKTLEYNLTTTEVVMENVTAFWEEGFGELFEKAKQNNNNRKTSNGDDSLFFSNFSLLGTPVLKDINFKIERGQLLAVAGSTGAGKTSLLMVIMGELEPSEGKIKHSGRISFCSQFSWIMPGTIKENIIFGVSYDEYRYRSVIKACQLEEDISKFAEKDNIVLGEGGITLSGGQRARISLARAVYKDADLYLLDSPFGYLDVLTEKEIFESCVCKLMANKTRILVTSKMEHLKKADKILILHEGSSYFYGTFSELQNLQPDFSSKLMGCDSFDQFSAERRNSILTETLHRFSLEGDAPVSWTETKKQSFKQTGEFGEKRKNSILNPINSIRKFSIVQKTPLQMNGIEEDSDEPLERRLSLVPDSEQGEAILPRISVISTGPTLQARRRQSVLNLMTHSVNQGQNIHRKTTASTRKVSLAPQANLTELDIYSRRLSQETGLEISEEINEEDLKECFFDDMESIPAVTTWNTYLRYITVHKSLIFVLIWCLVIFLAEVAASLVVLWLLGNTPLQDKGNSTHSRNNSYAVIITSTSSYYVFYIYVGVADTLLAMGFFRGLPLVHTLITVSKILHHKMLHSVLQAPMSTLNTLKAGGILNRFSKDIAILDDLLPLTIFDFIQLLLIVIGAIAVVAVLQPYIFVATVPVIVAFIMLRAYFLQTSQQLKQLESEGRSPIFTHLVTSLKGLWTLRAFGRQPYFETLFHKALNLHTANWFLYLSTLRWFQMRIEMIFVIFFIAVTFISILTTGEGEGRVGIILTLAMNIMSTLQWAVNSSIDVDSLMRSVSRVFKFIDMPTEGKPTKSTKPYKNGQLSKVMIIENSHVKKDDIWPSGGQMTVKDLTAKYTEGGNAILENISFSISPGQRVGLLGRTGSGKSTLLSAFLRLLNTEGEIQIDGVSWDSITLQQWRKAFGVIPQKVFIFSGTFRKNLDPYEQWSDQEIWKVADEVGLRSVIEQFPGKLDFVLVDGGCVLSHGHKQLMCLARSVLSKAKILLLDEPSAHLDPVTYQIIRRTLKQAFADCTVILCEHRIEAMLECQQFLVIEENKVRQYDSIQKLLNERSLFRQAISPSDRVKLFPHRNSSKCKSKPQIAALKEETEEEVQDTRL
T2 sequence (Q5U820 whole entry): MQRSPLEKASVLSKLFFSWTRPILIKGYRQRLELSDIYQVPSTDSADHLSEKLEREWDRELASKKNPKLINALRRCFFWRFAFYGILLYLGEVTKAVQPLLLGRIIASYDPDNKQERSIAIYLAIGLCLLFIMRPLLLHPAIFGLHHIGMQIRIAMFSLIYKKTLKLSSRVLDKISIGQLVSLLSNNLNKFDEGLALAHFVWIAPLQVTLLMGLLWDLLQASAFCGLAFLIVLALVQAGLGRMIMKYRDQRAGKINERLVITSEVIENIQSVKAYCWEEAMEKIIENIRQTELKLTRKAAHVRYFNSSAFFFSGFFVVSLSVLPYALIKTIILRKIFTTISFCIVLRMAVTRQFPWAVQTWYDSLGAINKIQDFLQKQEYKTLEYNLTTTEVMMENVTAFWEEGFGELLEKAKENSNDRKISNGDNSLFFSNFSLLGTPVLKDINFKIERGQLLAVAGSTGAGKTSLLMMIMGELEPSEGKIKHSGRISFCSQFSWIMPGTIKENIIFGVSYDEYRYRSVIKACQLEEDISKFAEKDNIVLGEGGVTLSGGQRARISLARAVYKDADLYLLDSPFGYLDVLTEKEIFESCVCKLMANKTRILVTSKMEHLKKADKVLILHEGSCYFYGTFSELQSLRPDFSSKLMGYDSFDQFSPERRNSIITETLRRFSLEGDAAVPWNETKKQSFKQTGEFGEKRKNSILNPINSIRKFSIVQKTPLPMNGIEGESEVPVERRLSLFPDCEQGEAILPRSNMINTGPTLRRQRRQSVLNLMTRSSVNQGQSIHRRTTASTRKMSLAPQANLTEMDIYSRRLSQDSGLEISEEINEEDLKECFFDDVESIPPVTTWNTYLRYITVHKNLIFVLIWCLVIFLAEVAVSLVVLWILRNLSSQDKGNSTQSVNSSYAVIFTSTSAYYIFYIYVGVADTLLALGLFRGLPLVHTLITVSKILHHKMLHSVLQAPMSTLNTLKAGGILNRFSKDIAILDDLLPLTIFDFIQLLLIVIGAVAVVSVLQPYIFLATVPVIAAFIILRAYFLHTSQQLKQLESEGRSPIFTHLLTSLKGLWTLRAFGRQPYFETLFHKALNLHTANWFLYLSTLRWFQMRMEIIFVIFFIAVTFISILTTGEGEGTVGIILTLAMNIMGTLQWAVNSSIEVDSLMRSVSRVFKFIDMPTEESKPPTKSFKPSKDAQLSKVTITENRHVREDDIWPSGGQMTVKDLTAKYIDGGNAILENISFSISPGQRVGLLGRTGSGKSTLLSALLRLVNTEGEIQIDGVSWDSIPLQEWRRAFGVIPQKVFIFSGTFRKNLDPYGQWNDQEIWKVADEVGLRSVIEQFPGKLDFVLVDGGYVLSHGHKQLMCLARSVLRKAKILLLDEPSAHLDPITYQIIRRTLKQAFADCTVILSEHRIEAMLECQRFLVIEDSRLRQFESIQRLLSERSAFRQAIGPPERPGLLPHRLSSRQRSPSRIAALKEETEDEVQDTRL
Chain of wild-type CFTR Cl- channels (P13569 whole entry): as the sequence (P13569 whole entry) above

## Nc1ncnc2c1ncn2[C@@H]1O[C@H](COP(=O)(O)OP(=O)(O)OP(=O)(O)O)[C@@H](O)[C@H]1O [ATP, reference compound]
wild-type human CFTR [1]; PKA-phosphorylated channels, read-out: EC50 for activation of CFTR Cl- channels by intracellular ATP
  EC50: 300 µM

## O=C1OC2(c3ccc(O)cc3Oc3cc(O)ccc32)c2ccccc21 [fluorescein]
wild-type human CFTR [1]; -50 mV
  effect on CFTR Cl- currents (concentration-response, FIG. 3): only inhibited

## O=C1OC2(c3ccc(O)cc3Oc3cc(O)ccc32)c2c(Cl)c(Cl)c(Cl)c(Cl)c21 [tetrachlorofluorescein]
wild-type human CFTR [1]; -50 mV
  effect on CFTR Cl- currents (concentration-response, FIG. 3): only inhibited

## Nc1ncnc2c1ncn2[C@@H]1O[C@H](COP(=O)(O)OP(=O)(O)O)[C@@H](O)[C@H]1O [ADP, reference compound]
wild-type human CFTR [2]; ADP 0.3 mM alone, ATP 0.3 mM, PKA 75 nM
  Po: 0.21±0.02
wild-type human CFTR [2]; ADP 0.3 mM, ATP 0.3 mM, PKA 75 nM
  Po as % of the control value: 49±1%

## O=C1OC2(c3cc(I)c(O)c(I)c3Oc3c2cc(I)c(O)c3I)c2c(Cl)c(Cl)c(Cl)c(Cl)c21 [bengal rose B]
wild-type human CFTR [2]; [5]
  open probability (Po): 0.40±0.08
wild-type human CFTR [1]; -50 mV
  effect on CFTR Cl- currents (concentration-response, FIG. 3): stimulated and inhibited
wild-type human CFTR [1]; ATP 0.3 mM, PKA 75 nM, -50 mV
  concentrations that stimulated CFTR Cl- currents: 0.1 to 1.0 µM
wild-type human CFTR [1]
  concentration that maximally stimulated channel activity: 1 µM

## O=C1OC2(c3ccccc31)c1cc(Br)c(O)c(Br)c1Oc1c2cc(Br)c(O)c1Br [eosin Y]
wild-type human CFTR [2]; [5]
  open probability (Po): 0.43±0.02
wild-type human CFTR [1]; -50 mV
  effect on CFTR Cl- currents (concentration-response, FIG. 3): stimulated and inhibited
wild-type human CFTR [1]; [6]
  effect on channel activity at positive voltages: channel activity is stimulated
  effect on channel activity at negative voltages: inhibits channel activity

## O=c1c(-c2ccc(O)cc2)coc2cc(O)cc(O)c12 [genistein, 5,7-dihydrox-3-(4-hydroxyphenyl)-4H-1-benzopyran-4-one]
[3]
  concentration that maximally stimulated wild-type CFTR Cl- channels: 35 µM

## O=C(O)c1c(Cl)c(Cl)c(Cl)c(Cl)c1-c1c2cc(Br)c(=O)c(Br)c-2oc2c(Br)c(O)c(Br)cc12 [phloxine B]
[4]; 10 μM
  effect on iodide efflux in the absence of cAMP agonists: without effect
[4]; 10 μM with cAMP agonists
  effect on cAMP-stimulated iodide efflux: enhanced both the speed and magnitude
wild-type human CFTR [2]; [5]
  open probability (Po): large increase in Po
  single-channel current amplitude (i): small, but significant (P<0.05), reduction
wild-type human CFTR [2]; 1 μM, single active channel
  interburst interval: no change; also recorded: without effect
  mean burst duration: large increase in the duration of bursts; also recorded: significantly increased
wild-type human CFTR [2]; ADP 0.3 mM + phloxine B 1 μM, ATP 0.3 mM, PKA 75 nM
  Po in the presence of ADP: 0.43±0.05
wild-type human CFTR [2]; in the presence of phloxine B 1 μM
  maximum Po (Pomax), Michaelis-Menten fit: 0.72
KATP currents
  effect on KATP currents in pancreatic β-cells: inhibits KATP currents
wild-type human CFTR [1]
  Ki: 17 µM
  reversibility of modulation of CFTR: partially reversible
  concentration that maximally stimulated channel activity: 5 µM
wild-type human CFTR [1]; -50 mV
  effect on CFTR Cl- currents (concentration-response, FIG. 3): stimulated and inhibited
  n (Hill coefficient) of current inhibition: 2
wild-type human CFTR [1]; ATP 0.3 mM, PKA 75 nM, -50 mV
  concentrations causing concentration-dependent decrease in CFTR Cl- current: 20 to 50 µM
  concentrations that stimulated CFTR Cl- currents: 1 to 5 µM
wild-type human CFTR [1]; added to intracellular solution in the absence of either ATP or PKA
  effect on the activity of CFTR Cl- channels: without effect
wild-type human CFTR [1]; [6]
  effect on channel activity at positive voltages: relieve channel block by phloxine B (40 μM), but do not stimulate channel activity
ΔF508 CFTR
  interburst interval of ΔF508: without altering
  mean burst duration of ΔF508 CFTR Cl channels: dramatically prolonging
ΔF508 CFTR; ATP 1.0 mM, PKA 75 nM
  increase of the Po of ΔF508: 1.5 fold
